Key:
Type in all cases: cell-based, human
[1] = system: CCRF-CEM; assay: Proliferation (3H-thymidine) of CCRF-CEM
From the text: (§1) CCRF-CEM, CEM/C1, CEM/C2, CEM-C7, Jurkat, Loucy, Molt-4, HSB-2, SUP-T1, Hut 78, HH, Hut 102, MO, and H9 T-leukemia and T-lymphoma cell lines were purchased from the American Type Culture Collection (Manassas, Va., USA). All of the cell lines were initially expanded and cryopreserved within one month of receipt. Cells were typically used for 6 months at which time a fresh vial of cryopreserved cells was used. Total T cells from healthy donors were isolated via negative selection followed by positive selection using a CD3+ selection kit (Invitrogen, Carlsbad, Calif.). T cells were isolated from patients with T-ALL bone marrow or peripheral blood samples containing more than 70% leukemia cells using a CD2+ isolation kit (STEMCELL Technologies, Vancouver, Canada). All tissues were collected under institutional IRB-approved protocols and all participants gave written informed assent/consent. For in vitro experiments, T-ALL cells were cultured in AIM-V medium supplemented with 20% human AB serum in the presence of recombinant human stem cell factor (50 ng/mL; Amgen, Thousand Oaks, Calif.), insulin (20 nM; Sigma-Aldrich, St Louis, Mo., USA) and IL-7 (50 ng/mL; R&D Systems, Minneapolis, Minn., USA). In other experiments, protein lysate was collected using the Full Moon Biosystems (Sunnyvale, Calif., USA) buffer prior to protein examination by western blot or protein array.
(§2) Cells were cultured in a 96-well plate (Corning Costar, Corning, N.Y., USA) with various concentrations of TLR ligands 1-9, starting at 10 μg/ml, in a final volume of 200 ul. TLR ligands were diluted 2-fold. Cell lines (25-40×10^3/well) were cultured for 54 hours, whereas fresh patient-derived T-ALL cells (200×10^3/well) were cultured for 30 hours prior to adding [^3H]-thymidine for 18 hours. After this time point, cells were harvested with a Packard Filter-Mate-96 cell harvester (Perkin Elmer, Waltham, Mass., USA) and counted on Packard Top Count-NXT (Perkin Elmer, Waltham, Mass., USA). Results were expressed as average counts per minute (cpm). In some experiments CCRF-CEM cells were pre-treated with TLR1-TLR2 ligand (Pam3CysK4; 2.5 ug/ml) for 48 hrs, washed, and then cultured in the presence of varying concentrations of FBS. Forty-eight hours later, proliferation (±SD) was determined by ^3H-thymidine incorporation. Alternatively, apoptosis was measured by flow cytometry after staining cells with Annexin-V (BD Pharmingen, San Diego, Calif., USA) and propidium iodide (Sigma). Cell number was counted under microscopy by staining cells with trypan blue.
(§3) The following TLR ligands were purchased from Invivogen (San Diego, Calif., USA): tripalmitoyl-S-(bis(palmitoyloxy)propyl)-Cys-Ser-(Lys)3-Lys (TLR1-2); Poly I:C (TLR3); ultrapure S. Minnesota Lipopolysaccharide (TLR4); S. typhimurium flagellin (TLR5); FSL-1 (TLR2/6); Imiquimod (TLR7); ssRNA40/Lyovec (TLR8); CpG-ODN 2006 (TLR9).

[2] = system: A375 melanoma cells; assay: Apoptosis by annexin-V/PI flow cytometry in A375
Experimental: FIG. 8. IRAK-1,-4 inhibition sensitized melanoma cells to vinblastine-mediated cytotoxicity. (A) A375 and Malme-3M melanoma cells were cultured with or without 2.5 μM of IRAK-1,-4 and in the presence varying concentrations of vinblastine, cisplatin or 5′ Fluorouracil. Forty-eight hours later apoptosis was evaluated by staining cells with annexin-V and propidium iodide and analyzed by flow cytometry. (B) A375 cells were transfected via electroporation with siRNA-IRAK-1,-4. IRAK-1 protein levels were examined by Western blotting. […], A375-psiRNA-hIRAK-1, A375-psiRNA-hIRAK-4, or cells expressing both psiRNA-hIRAK-1 and -4 were cultured in the presence of vinblastine (100 nmol/L) for 48 hours and apoptosis was examined by flow cytometry. (C) A375 melanoma cells were cultured in the presence of vehicle alone (DMSO) or various concentrations of IRAK-1,-4. Forty-eight hours later cell lysates were used to analyze the expression of levels of cleaved PARP or caspase-3 by Western blots. (D) A375 melanoma cells were cultured with or without 2.5 μM of IRAK.-1,-4 and in the presence or absence of vinblastine for 48 hrs. PARP and caspase-3 levels were determined by Western blot.
FIG. 20. Role of TLR-induced cytokines and NF-kB on cell survival. […] The percentage of apoptotic cells was measured by staining cells with Annexin and PI 48 hours later and analyzed by flow cytometry. […] After 48 hours, apoptosis was measured by flow cytometry. […] Apoptosis was measured 48 hours later by flow cytometry.
The TLR1-TLR2 ligand tripalmitoyl-S-(bis(palmitoyloxy)propyl)-Cys-Ser-(Lys)3-Lys (Pam3Cys) was purchased from Invivogen (San Diego, Calif., USA). […] In some experiments cells were treated with the indicated concentrations of IRAK.-1,-4 inhibitor and vinblastine, cisplatin, and 5-fluorouracil (Sigma-Aldrich, St. Louis, Mo.), and apoptosis was quantitated by flow cytometry after staining cells with FITC-labeled annexin-V (BD Pharmingen, San Jose, Calif.) and propidium iodide (PI; Sigma-Aldrich).

[3] = system: CEM-C1; assay: Proliferation (3H-thymidine) of CEM-C1
From the text: as §1
as §2, with “blue. […]” for “blue.”

[4] = system: Loucy; assay: Proliferation (3H-thymidine) of Loucy
From the text: as §1
as §2, with “blue. […]” for “blue.”

[5] = system: H9; assay: Proliferation (3H-thymidine) of H9
From the text: as §1, §2, §3

Row | Molecule | reduction of proliferation of TLR1-TLR2-stimulated cells ([1]; IRAK-1,-4 inhibitor 5 μM with TLR1-TLR2 agonist 1 μg/ml, 48 h, FIG. 3A) | lowest concentration effective in reducing proliferation ([1]; concentration-dependent, 48 h, FIG. 3B) | sensitivity to vinblastine (apoptosis) ([2]; 2.5 μmol/L IRAK-1,-4 inhibitor with 0-200 nmol/L vinblastine, 48 h) | cisplatin's cytotoxicity ([2]; IRAK-1,-4 inhibitor with 0-50 nmol/L cisplatin) | melanoma apoptosis ([2]; inhibitor alone, absence of vinblastine) | Proliferative effects of TLR ligands ([1]; 3H-thymidine uptake, 72 h) | concentration at which cells proliferated in response to the ligand ([1]; FIG. 1A) | effect on proliferation (in words) ([1]; FIG. 1A) | TLR ligand concentration in parentheses below the symbol ([1]; no unit in table (μg/ml)) | Proliferative effects of TLR ligands ([3]; 3H-thymidine uptake, 72 h) | TLR ligand concentration in parentheses below the symbol ([3]; no unit in table (μg/ml)) | Proliferative effects of TLR ligands ([4]; 3H-thymidine uptake, 72 h) | TLR ligand concentration in parentheses below the symbol ([4]; no unit in table (μg/ml)) | Proliferative effects of TLR ligands ([5]; H9, 3H-thymidine uptake, 72 h) | effect on proliferation (in words) ([5]; H9 T-lymphoma, FIG. 1A)
1 | O=C(Nc1nc2ccccc2n1CCN1CCOCC1)c1cccc([N+](=O)[O-])c1 [IRAK-1,-4 inhibitor] | 72% | 1.5 µM | increased sensitivity | did not increase | moderately increased |  |  |  |  |  |  |  |  |  | 
2 | tripalmitoyl-S-(bis(palmitoyloxy)propyl)-Cys-Ser-(Lys)3-Lys [Pam3Cysk4] |  |  |  |  |  | + (enhanced proliferation by 25% or greater) | 1.2 µg/mL | proliferated | (1.2) | + (enhanced proliferation by 25% or greater) | (2.5) | + (enhanced proliferation by 25% or greater) | (2.5) | ∘ | no effect on proliferation

Reference: US9464326B2, “Total and phosphorylated IL-1 receptor-associated kinase-1 and IL-1 receptor-associated kinase-4 as a biomarker for cancer progression and chemotherapy resistance” (University of Maryland, Baltimore, priority 2012, dated 2016)
